What was measured:
Homo sapiens [1] = species: Homo sapiens; experiment: Toxicity in TB patients assessed as death; format: organism-based; settings: in vivo
Homo sapiens [2] = experiment: Hepatotoxicity in TB patients assessed as elevated aspartate aminotransferase level at 30 g/kg; format: toxicity, organism-based; settings: in vivo, 30000 mg/kg
Homo sapiens [3] = experiment: Hepatotoxicity in TB patients assessed as abnormal flocculation at 3.7 g/kg/day measured after 87 days; format: toxicity, organism-based; settings: in vivo, 3700 mg/kg, 2088 h
Homo sapiens [4] = species: Homo sapiens; experiment: Toxicity in TB patients assessed as arthralgia; format: organism-based; settings: in vivo
Homo sapiens [5] = experiment: Hepatotoxicity in TB patients assessed as abnormal flocculation at 3.7 g/kg/day measured after 52 days; format: toxicity, organism-based; settings: in vivo, 3700 mg/kg, 1248 h
Homo sapiens [6] = experiment: Hepatotoxicity in TB patients assessed as jaundice at 3.7 g/kg/day measured after 87 days; format: toxicity, organism-based; settings: in vivo, 3700 mg/kg, 2088 h
Homo sapiens [7] = experiment: Hepatotoxicity in TB patients assessed as jaundice at 3.7 g/kg/day measured after 52 days; format: toxicity, organism-based; settings: in vivo, 3700 mg/kg, 1248 h
Homo sapiens [8] = experiment: Pharmacokinetic parameter in TB patient serum assessed as percentage of time the compound persisted above 5 mg/L at 1500 mg/kg daily; format: ADME, organism-based; set-up: dose 1500 mg/kg; settings: in vivo
Homo sapiens [9] = experiment: Pharmacokinetic parameter in TB patient serum assessed as percentage of time the compound persisted above 5 mg/L at 3000 mg/kg administered alternate day; format: ADME, organism-based; set-up: dose 3000 mg/kg; settings: in vivo
Homo sapiens [10] = species: Homo sapiens; experiment: Pharmacokinetic parameter in TB patient serum assessed as percentage of time the compound persisted above 5 mg/L at 500 mg/ kg TID; format: ADME, organism-based; set-up: dose 500 mg/ kg; settings: in vivo
Homo sapiens [11] = experiment: Pharmacokinetic parameter in TB patient serum assessed as percentage of time the compound persisted above 10 mg/L at 3000 mg/kg administered alternate day; format: ADME, organism-based; set-up: dose 3000 mg/kg; settings: in vivo
Homo sapiens [12] = experiment: Pharmacokinetic parameter in TB patient serum assessed as percentage of time the compound persisted above 10 mg/L at 1500 mg/kg daily; format: ADME, organism-based; set-up: dose 1500 mg/kg; settings: in vivo
Homo sapiens [13] = species: Homo sapiens; experiment: Pharmacokinetic parameter in TB patient serum assessed as percentage of time the compound persisted above 10 mg/L at 500 mg/ kg TID; format: ADME, organism-based; set-up: dose 500 mg/ kg; settings: in vivo
Homo sapiens [14] = experiment: Pharmacokinetic parameter in TB patient serum assessed as percentage of time the compound persisted above 20 mg/L at 3000 mg/kg administered alternate day; format: ADME, organism-based; set-up: dose 3000 mg/kg; settings: in vivo
Homo sapiens [15] = experiment: Pharmacokinetic parameter in TB patient serum assessed as percentage of time the compound persisted above 20 mg/L at 1500 mg/kg daily; format: ADME, organism-based; set-up: dose 1500 mg/kg; settings: in vivo
[16] = Cmax in TB patient serum at 3000 mg/kg administered alternate day; format: ADME, organism-based; set-up: dose 3000 mg/kg; settings: human
Homo sapiens [17] = species: Homo sapiens; experiment: Pharmacokinetic parameter in TB patient serum assessed as percentage of time the compound persisted above 20 mg/L at 500 mg/ kg TID; format: ADME, organism-based; set-up: dose 500 mg/ kg; settings: in vivo
[18] = Cmax in TB patient serum at 500 mg/kg TID; format: ADME, organism-based; set-up: dose 500 mg/kg; settings: human
[19] = Cmax in TB patient serum at 1500 mg/kg daily; format: ADME, organism-based; set-up: dose 1500 mg/kg; settings: human
[20] = AUC (0 to 168 hrs) in serum of TB patient at 1500 mg/kg daily; format: ADME, organism-based; set-up: time < 168 hr, dose 1500 mg/kg; settings: human
[21] = AUC (0 to 168 hrs) in serum of TB patient at 3000 mg/kg administered alternate day; format: ADME, organism-based; set-up: time < 168 hr, dose 3000 mg/kg; settings: human
[22] = AUC (0 to 168 hrs) in TB patient serum at 500 mg/ kg TID; format: ADME, organism-based; set-up: time < 168 hr, dose 500 mg/ kg; settings: human
[23] = Systemic clearance in TB patient serum at 1500 mg/kg daily; format: ADME, organism-based; set-up: dose 1500 mg/kg; settings: human
[24] = Systemic clearance in TB patient serum at 3000 mg/kg administered alternate day; format: ADME, organism-based; set-up: dose 3000 mg/kg; settings: human
[25] = Systemic clearance in TB patient serum at 500 mg/ kg TID; format: ADME, organism-based; set-up: dose 500 mg/ kg; settings: human
Homo sapiens [26] = experiment: Hepatotoxicity in TB patients assessed as elevated aspartate aminotransferase level at 40 g/kg; format: toxicity, organism-based; settings: in vivo, 40000 mg/kg
Homo sapiens [27] = experiment: Hepatotoxicity in TB patients assessed as elevated aspartate aminotransferase level at 60 g/kg; format: toxicity, organism-based; settings: in vivo, 60000 mg/kg

For NC(=O)c1cnccn1 [PYRAZINAMIDE], the Activity (Homo sapiens [1]) was “Toxic”, the Activity (Homo sapiens [2]) was “Non-toxic” and the Activity (Homo sapiens [3]) was “Non-toxic”. The Activity (Homo sapiens [4]) was “Toxic”, the Activity (Homo sapiens [5]) was “Non-toxic” and the Activity (Homo sapiens [6]) was “Non-toxic”. For the same molecule, the Activity (Homo sapiens [7]) was “Non-toxic”, the Activity (Homo sapiens [8]) was 74% and the Activity (Homo sapiens [9]) was 48%. For the same molecule, the Activity (Homo sapiens [10]) was 92%, the Activity (Homo sapiens [11]) was 35% and the Activity (Homo sapiens [12]) was 49%. The Activity (Homo sapiens [13]) was 67%, the Activity (Homo sapiens [14]) was 23% and the Activity (Homo sapiens [15]) was 24%. It also gave a Cmax [16] of 67500 ng/mL, an Activity (Homo sapiens [17]) of 9% and a Cmax [18] of 20200 ng/mL. For the same molecule, the Cmax [19] was 33800 ng/mL, the AUC at 168 h [20] was 2270 µg·h/mL and the AUC(0-t) at 168 h [21] was 2160 µg·h/mL. The AUC at 168 h [22] was 2190 µg·h/mL, the clearance [23] was 66.2 mL/min and the clearance [24] was 69.3 mL/min. For the same molecule, the clearance [25] was 68.5 mL/min, the Activity (Homo sapiens [26]) was “Non-toxic” and the Activity (Homo sapiens [27]) was “Non-toxic”.

Reference: ChEMBL document CHEMBL1275245, “Clinical and toxicodynamic evidence that high-dose pyrazinamide is not more hepatotoxic than the low doses currently used” (Antimicrob Agents Chemother, 2010)
